“Also recorded” adds a separate entry of the source. Read-outs that look alike come from different tables or passages of the source. Ends that are not written are not given here.
Experiments:
[1] = system: LTP in mouse hippocampal slices impaired by Aβ(1–42) oligomers; assay: Ex vivo hippocampal slice LTP electrophysiology; format: cell-based
Text: We investigated whether 7 could protect against the synaptic plasticity damage caused by Aβ(1–42) oligomers by using a hippocampus slice LTP model. LTP, a correlate of learning and memory has been repeatedly shown to be impaired by Aβ(1–42) oligomers. As negative control, substance 11 was applied. The experimenters were blind to the compounds tested.
These observations indicate the significant protective effect of 7 (Figure 12D). To test the effects of valency, LTP experiments were repeated with 8 under the same conditions.
Via standard procedures, 350-µm-thick transverse hippocampal slices were prepared from the brain of 7-months-old mice (CD1, Animal Breeding Facility, University of Szeged) with a McIlwain tissue chopper (Campden Instruments, Loughborough, UK). Slices were incubated in standard artificial cerebrospinal fluid (ACSF) at ambient temperature for 60 min, during constant gassing with 95% O2–5% CO2. The ACSF contained (mM): NaCl, 130; KCl, 3.5; CaCl2, 2; MgCl2, 2; NaH2PO4, 0.96; NaHCO3, 24; and D-glucose, 10 (pH 7.4). Individual slices were transferred to a 3D-MEA chip with 60 tip-shaped and 60-μm-high electrodes spaced at 100 μm (Ayanda Biosystems, S.A., Lausanne, Switzerland). The slice was continuously perfused with oxygenated ACSF (1.5 ml min^−1 at 34 °C) containing 720 nM Aβ(1–42) oligomers and/or 950 nM ligand throughout the recording session. Data were recorded with a standard, commercially available MEA setup (Multi Channel Systems MCS GmbH, Reutlingen, Germany). The Schaffer-collateral was stimulated by injecting a biphasic current waveform (−100/+100 μs) through one selected electrode at 0.033 Hz. Care was taken to choose the stimulating electrode in the same region from one slice to the other. The peak-to-peak amplitudes of fEPSPs at the stratum pyramidale and stratum radiatum of CA1 were analyzed. After a 30-min incubation period, the threshold and the maximum of stimulation intensity for evoke responses was determined. To evoke responses, 30% of the maximal stimulation intensity was used. LTP was induced by applying a theta-burst stimulation (TBS) pattern at the maximal stimulation intensity. The TBS comprised four trains administered at 20-s intervals with 10 bursts given at 5 Hz per train and 4 pulses at 100 Hz per burst. Statistical analysis was carried out by using two-tailed Student's t-test. For representative raw data see Figure S12.

Aβ oligomers [2] = molecular target: T1, Aβ oligomers (Homo sapiens, UniProt P05067); assay: Isothermal titration calorimetry (ITC) with Aβ oligomers; format: binding
T1 construct: a depsipeptide derivative of Aβ(1–42) was utilized; made in house; host or cells: chemical peptide synthesis (no expression host)
Experimental: (§1) Binding of 7 to the Aβ oligomers was monitored by means of isothermal titration calorimetry (ITC). […] The titrations were run at 288 K in order to improve the signal to noise ratio, and just above the precipitation limit as the ITC method is sensitive to the thermal noise caused by the stirring of large particles. […] These values strongly supported tight binding between the Aβ oligomer species and 7.
Isothermal titrations were performed with a Microcal VP-ITC microcalorimeter. The binding experiments were performed in PBS pH 7.4. The buffer solution was degassed. The concentrations of the ligands and Aβ were corrected for the material content. In individual titrations, 10 μL of ligand was injected from the computer-controlled 300-μL microsyringe at intervals of 300 s into the Aβ oligomer solution dissolved in the same buffer as the ligand. The microsyringe stirring was set to 295 rpm. All measurements were made at 288 K. The Aβ concentrations in the cell were either 72 μM or 36 μM, and the concentrations of 7 were 175 μM and 222 μM respectively. The total ligand concentration was set in the syringe so that the titration stopped when the precipitation became excessive. Control experiments were performed by injecting the ligand into a cell containing buffer with no target, and the heats of dilution were subtracted from those measured in the presence of Aβ. Titrations were also performed with buffer in the syringe and Aβ oligomer sample in the cell to check for the heat response of Aβ dilution itself. The dilution heat of the Aβ oligomer samples was constant and negligible. Since the target is inherently inhomogeneous, and an a priori model of the binding events is not available,. the experimental data were fitted to the two independent site binding model by using a nonlinear least-squares procedure, with ΔHb, ΔHb', Ka, Ka' (association constants), N and N' (number of binding sites for monomer), as adjustable parameters. The exothermic peaks appearing after the fully precipitated phase was reached, were omitted from the regression.

Aβ oligomers [3] = molecular target: T1, Aβ oligomers; assay: Ligand-induced precipitation during ITC titration, followed by DLS; details: 72 μM Aβ oligomer
Experimental: as §1
For DLS measurements, 500 µL Aβ(1–42) solution (c = 72 µM) was prepared in PBS, and placed in a low–volume sizing cell. Size distribution was measured at 25°C on a Malvern Zetasizer Nano ZS Instrument (Malvern Instruments Ltd. Worcestershire, UK) equipped with a He-Ne laser (633 nm) by means of Non-Invasive Back Scatter (NIBS®) technology, which involves detection of the scattered light at an angle of 173°. A titration routine was formulated consisting of 12 independent measurements with a 2-min delay after each. The calculated amount of 7 solution was added to the Aβ after every second measurement. During the titration, the molar quantity of 7 varied between 0–35 µM. For a single measurement, the correlation function and distribution of the apparent hydrodynamic diameter (dh) over the scattered intensity of the particles were determined on the basis of 14 scans. […]

[4] = read-out: KD (ITC), given as bound, 72 μM Aβ oligomer, 288 K
[5] = read-out: KD (ITC; first binding step for 7, single stage for the others), 72 μM Aβ oligomer in cell, 288 K, PBS pH 7.4
[6] = 72 μM Aβ oligomer in cell, 288 K, PBS pH 7.4, read-out: KD (ITC; first binding step for 7, single stage for the others)

Compound	Tight binding to the Aβ oligomer species in ITC (in words) (Aβ oligomers [2]; 72 μM Aβ oligomer)	N (ITC stoichiometry, number of binding sites for monomer; first or single stage) (Aβ oligomers [2]; 72 μM Aβ oligomer, 288 K)	Kd (Aβ oligomers [2]; [4])	Kd (Aβ oligomers [2]; [5])	Kd (Aβ oligomers [2]; [6])	further results
Aβ(1–42) oligomer: synaptotoxic Aβ(1–42) oligomers prepared from Ser26 depsipeptide iso-Aβ(1–42) at pH 7.4 [reference compound]						LTP (potentiation) with Aβ(1–42) oligomer alone ([1]; 720 nM Aβ(1–42) oligomer, untreated slices 175±5%): 128±5%
N=C(N)NCCC[C@@H](CC(=O)N[C@H]1CCCC[C@@H]1C(=O)N[C@@H](CC(=O)O)CC(=O)N[C@H]1CCCC[C@@H]1C(=O)N[C@H]1CCCC[C@@H]1C(=O)NCC(=O)NCC(=O)N[C@@H](CSC1CC(=O)N(CCC(=O)NCCNC(=O)CCN(CCC(=O)NCCNC(=O)CCN2C(=O)CC(SC[C@H](NC(=O)CNC(=O)CNC(=O)[C@H]3CCCC[C@@H]3NC(=O)[C@H]3CCCC[C@@H]3NC(=O)C[C@H](CC(=O)O)NC(=O)[C@H]3CCCC[C@@H]3NC(=O)C[C@H](CCCNC(=N)N)NC(=O)[C@H]3CCCC[C@@H]3N)C(N)=O)C2=O)CCN(CCC(=O)NCCNC(=O)CCN2C(=O)CC(SC[C@H](NC(=O)CNC(=O)CNC(=O)[C@H]3CCCC[C@@H]3NC(=O)[C@H]3CCCC[C@@H]3NC(=O)C[C@H](CC(=O)O)NC(=O)[C@H]3CCCC[C@@H]3NC(=O)C[C@H](CCCNC(=N)N)NC(=O)[C@H]3CCCC[C@@H]3N)C(N)=O)C2=O)CCC(=O)NCCNC(=O)CCN2C(=O)CC(SC[C@H](NC(=O)CNC(=O)CNC(=O)[C@H]3CCCC[C@@H]3NC(=O)[C@H]3CCCC[C@@H]3NC(=O)C[C@H](CC(=O)O)NC(=O)[C@H]3CCCC[C@@H]3NC(=O)C[C@H](CCCNC(=N)N)NC(=O)[C@H]3CCCC[C@@H]3N)C(N)=O)C2=O)C1=O)C(N)=O)NC(=O)[C@H]1CCCC[C@@H]1N (stereo partly drawn) [Compound 10]	did not reveal any tight binding	0.10	> 2000 nM	2750 ± 301 nM		
11: 6 coupled to the G0-PAMAM template; negative control with Gly7 tentacles (GGGGGGGC-NH2; not fully specified (residue 8); also: coupled to tetravalent G0-PAMAM template) [Compound 11]	the curve fitting did not converge; also recorded: did not reveal any tight binding					LTP (potentiation) with Aβ(1–42) oligomers and ligand together ([1]; 720 nM Aβ(1–42) oligomers + 950 nM ligand, 180 min after LTP induction, mean ±SEM): 130±3%; LTP (potentiation) with ligand alone ([1]; 950 nM ligand, no Aβ oligomers, mean ±SEM): 200±14%
N=C(N)NCCC[C@@H](CC(=O)N[C@H]1CCCC[C@@H]1C(=O)N[C@H]1CCCC[C@@H]1C(=O)N[C@@H](CC(=O)O)CC(=O)N[C@H]1CCCC[C@@H]1C(N)=O)NC(=O)[C@H]1CCCC[C@@H]1N [Compound 1]					2380 ± 214 nM	Kd (Aβ oligomers [2]; 72 μM Aβ oligomer, 288 K, read-out: KD (ITC), given as bound): > 2000 nM
NC(=O)[C@H](CSC1CC(=O)N(CCC(=O)NCCNC(=O)CCN(CCC(=O)NCCNC(=O)CCN2C(=O)CC(SC[C@H](NC(=O)CNC(=O)CNC(=O)[C@H]3CCCC[C@@H]3NC(=O)C[C@H](CO)NC(=O)[C@H]3CCCC[C@@H]3NC(=O)[C@H]3CCCC[C@@H]3NC(=O)C[C@H](CO)NC(=O)[C@H]3CCCC[C@@H]3N)C(N)=O)C2=O)CCN(CCC(=O)NCCNC(=O)CCN2C(=O)CC(SC[C@H](NC(=O)CNC(=O)CNC(=O)[C@H]3CCCC[C@@H]3NC(=O)C[C@H](CO)NC(=O)[C@H]3CCCC[C@@H]3NC(=O)[C@H]3CCCC[C@@H]3NC(=O)C[C@H](CO)NC(=O)[C@H]3CCCC[C@@H]3N)C(N)=O)C2=O)CCC(=O)NCCNC(=O)CCN2C(=O)CC(SC[C@H](NC(=O)CNC(=O)CNC(=O)[C@H]3CCCC[C@@H]3NC(=O)C[C@H](CO)NC(=O)[C@H]3CCCC[C@@H]3NC(=O)[C@H]3CCCC[C@@H]3NC(=O)C[C@H](CO)NC(=O)[C@H]3CCCC[C@@H]3N)C(N)=O)C2=O)C1=O)NC(=O)CNC(=O)CNC(=O)[C@H]1CCCC[C@@H]1NC(=O)C[C@H](CO)NC(=O)[C@H]1CCCC[C@@H]1NC(=O)[C@H]1CCCC[C@@H]1NC(=O)C[C@H](CO)NC(=O)[C@H]1CCCC[C@@H]1N (stereo partly drawn) [Compound 9]	did not reveal any tight binding	0.03	> 2000 nM	2240 ± 198 nM		
N=C(N)NCCC[C@@H](CC(=O)N[C@H]1CCCC[C@@H]1C(=O)N[C@H]1CCCC[C@@H]1C(=O)N[C@@H](CC(=O)O)CC(=O)N[C@H]1CCCC[C@@H]1C(=O)NCC(=O)NCC(=O)N[C@@H](CSC1CC(=O)N(CCCCN2C(=O)CC(SC[C@H](NC(=O)CNC(=O)CNC(=O)[C@H]3CCCC[C@@H]3NC(=O)C[C@H](CC(=O)O)NC(=O)[C@H]3CCCC[C@@H]3NC(=O)[C@H]3CCCC[C@@H]3NC(=O)C[C@H](CCCNC(=N)N)NC(=O)[C@H]3CCCC[C@@H]3N)C(N)=O)C2=O)C1=O)C(N)=O)NC(=O)[C@H]1CCCC[C@@H]1N (stereo partly drawn) [Compound 8]					721 ± 120 nM	Rescue of LTP from toxic Aβ oligomers (in words) ([1]; 720 nM Aβ(1–42) oligomers + 950 nM ligand): No rescue from the toxic Aβ oligomers was observed; ΔHb (ITC; first binding step for 7, single stage for 8) (Aβ oligomers [2]; 72 μM Aβ oligomer, 288 K): 1.1 ± 0.12 kcal/mol; Concentration-dependent precipitation of Aβ oligomers during titration (ITC/DLS) (Aβ oligomers [3]): Neither 8 nor 1 led to concentration-dependent precipitation

From publication PMC3408453, “A Foldamer-Dendrimer Conjugate Neutralizes Synaptotoxic β-Amyloid Oligomers” (PLoS ONE, 2012)
